Experimental data taken from patent US20240180880A1, “METHODS OF USING EHMT2 INHIBITORS IN TREATING OR PREVENTING BLOOD DISORDERS” (Epizyme, Inc., priority 2017, published 2024).

Experiments:
[1] = tested on: Human CD34+ progenitor cells; assay: Human CD34+ progenitors assay for fetal hemoglobin induction, % HbF+ cells by FACS (healthy donors); assay type: cell-based; details: for Observed Induction of % HbF + Human Erythroid Progenitors: evaluated in the context of cell viability; for % HbF+ cells: 26% basal level
From the text: An in-vitro system to test the ability of compound to induce fetal hemoglobin expression was developed. This system used Human CD34+ progenitor cells freshly isolated from healthy donors blood collections. Peripheral blood mononuclear cells (PBMCs) were isolated from whole blood by density gradient centrifugation using SepMatem-50 and Lymphoprep™ from Stem Cell Technologies. CD34^+ hematopoietic progenitor cells (HSPCs) were isolated from PBMCs by magnetic separation using Stem Cells Technologies CD34+ positive selection/isolation kit (Stem Cell Technologies, #18056). CD34 cells were cultured using a 2-phase 14 day culture system. During phase 1 (day 0 to day 7) cells were expanded. Expansion was followed by phase 2 (day 7 to day 14) where cells were differentiated toward the erythroid lineage. Compounds were added on day 1 and day 7 as 1000× stock after being diluted in dimethyl sulfoxide (DMSO) in a 3-fold series. Final DMSO concentration in the assay was 0.1%. At day 14 cells were harvested for Fluorescent Activated Cell Sorting (FACS) analysis and for HbF quantitation by Mass spectrometry. For cell surface and intracellular marker analysis by FACS, cells were fixed and stained with a cocktail of antibodies covering erythroid lineage markers, HbF and H3 and H3K9me2 (Table 11). Data was collected using Canto II flow cytometer (BD Biosciences) and the FACSDiva software. Data was analyzed using FlowJo software. % HbF^+ cells and ratios H3/H3K9me2 intensities were calculated for CD71^+/CD235a^+ gated populations.
A list of pharmacological agents was evaluated for their potential to induce fetal Hemoglobin (HbF) in order to identify combination partners for our EHMT1/2 inhibitors. HbF can be induced by toxicity; therefore, the potential of the agents to induce HbF were evaluated in the context of cell viability. (Table 12). The EHMT1/2 inhibitor Compound 205 was evaluated in combination with a fixed dose of 10 μM Hydroxyurea and 0.1 μM Pomalidomide. […] 10 μM Hydroxyurea as a single agent was able to induce 01% HbF^+ cells from 26% basal level to 45% while 0.016 μM compound 205 as a single agent induced to 45%. In combination these two agents were able to induced % HbF^+ to 63% (FIG. 3A). […] 0.1 μM Pomalidomide as a single agent was able to induce ° % HbF cells from 26% basal level to 48% while 0.016 μM compound 205 as a single agent induced to 45%. In combination these two agents were able to induce % HbF^+ to 78% (FIG. 3B).
Hydroxyurea was also evaluated as single agent and in combination with the EHMT1/2 inhibitor compound 205 in a matrix format using CD34^+ cells isolated from a pool of 5 healthy donors. […] (FIG. 4 and FIG. 5, respectively). It is noted that for Loewe excess determination in Chalice, data was normalized to the highest and lowest Hbγ induction observed under the conditions and dose ranges in the assay.

[2] = tested on: human CD34+ progenitor cells isolated from SCD donors; assay: HbF pan-cellular induction by FACS in human CD34+ progenitor cells isolated from SCD donors; assay type: cell-based

Row | SMILES | Observed Induction of % HbF + Human Erythroid Progenitors [1] | also measured
1 | Nc1ccccc1NC(=O)c1cnccn1 [BG-45] | Yes | –
2 | NC(CO)C(=O)NNCc1ccc(O)c(O)c1O (stereo not shown) [Benzerazide] | Very small | –
3 | CNc1cc(C)nc(Nc2ccc(OC)c(OC[C@H](O)CN3CCC3)c2)n1 [Compound D5R] | – | Fluorescence Intensity at which most of the positive cells are concentrated ([2]; 0.012 μM Compound D5R): ~10(3); % of HbF expressing cells ([2]; 0.012 μM Compound D5R, DMSO baseline 42.7%): 98.1%; % of HbF expressing cells ([2]; 10 μM Hydroxyurea in combination with 0.012 μM Compound D5R, DMSO baseline 42.7%): 99.8%; % HbF+ cells ([2]; Compound D5R dose response range (FIG. 6 ii-vi), DMSO baseline 42.7%): > 98%
4 | Clc1ccc2c(c1)CCc1cccnc1C2=C1CCNCC1 [Desloratidine, desloratidine] | No | –
5 | Nc1ccccc1NC(=O)c1ccc(CNC(=O)OCc2cccnc2)cc1 [Entinostat, entinostat] | Yes | –
6 | NC(=O)NO [Hydroxyurea, hydroxyurea, reference compound] | Yes | % HbF+ cells ([1]; 10 μM Hydroxyurea as a single agent): 45%; Fluorescence Intensity at which most of the positive cells are concentrated ([2]; 10 μM Hydroxyurea): ~10(4); % of HbF expressing cells ([2]; 10 μM Hydroxyurea, DMSO baseline 42.7%): 78.1%
7 | CN(C)C(=N)N=C(N)N [Metformin] | Yes | –
8 | Nc1cccc2c1C(=O)N(C1CCC(=O)NC1=O)C2=O (stereo not shown) [Pomalidomide, pomalidomide] | Yes | % HbF+ cells ([1]; 0.1 μM Pomalidomide as a single agent): 48%
9 | O=C(CCCCCCC(=O)Nc1ccccc1)NO [Vorinostat, vorinostat] | No | –
